Assays:
Format in all cases: biochemical
[1] = target: ROCK I (AA 6-553) (Homo sapiens, UniProt Q13464); test: ROCK inhibition assay, coupled enzyme system ("Enzyme"); settings: enzyme-linked assay; average Ki if more than one determined
Experimental: Reactions were carried out in a solution containing 100 mM HEPES (pH 7.5), 10 mM MgCl2, 25 mM NaCl, 2 mM DTT and 1.5% DMSO.
(§1) If more than one value of Ki has been determined, the average Ki is indicated. If no value is indicated, then the Ki was not determined.

[2] = target: PKA (Homo sapiens, UniProt P17612); test: PKA inhibition assay, coupled enzyme; settings: average Ki if more than one determined
Procedure, shortened: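 Coupled PK/LDH assay following NADH depletion: 18 nM PKA, 50 μM ATP, 80 μM Kemptide in 100 mM HEPES pH 7.5, 10 mM MgCl2, 25 mM NaCl, 1 mM DTT, 3% DMSO, at 30 °C. Compound preincubated 10 min before ATP start; initial rates over 15 min, IC50 and Ki by non-linear regression.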

[3] = target: ROCK (Homo sapiens, UniProt Q13464); test: ROCK radioactive assay ("33P"); settings: radioactive assay; average Ki if more than one determined; read-out: ROCK 33P Ki
Sequence of ROCK (Q13464 whole entry): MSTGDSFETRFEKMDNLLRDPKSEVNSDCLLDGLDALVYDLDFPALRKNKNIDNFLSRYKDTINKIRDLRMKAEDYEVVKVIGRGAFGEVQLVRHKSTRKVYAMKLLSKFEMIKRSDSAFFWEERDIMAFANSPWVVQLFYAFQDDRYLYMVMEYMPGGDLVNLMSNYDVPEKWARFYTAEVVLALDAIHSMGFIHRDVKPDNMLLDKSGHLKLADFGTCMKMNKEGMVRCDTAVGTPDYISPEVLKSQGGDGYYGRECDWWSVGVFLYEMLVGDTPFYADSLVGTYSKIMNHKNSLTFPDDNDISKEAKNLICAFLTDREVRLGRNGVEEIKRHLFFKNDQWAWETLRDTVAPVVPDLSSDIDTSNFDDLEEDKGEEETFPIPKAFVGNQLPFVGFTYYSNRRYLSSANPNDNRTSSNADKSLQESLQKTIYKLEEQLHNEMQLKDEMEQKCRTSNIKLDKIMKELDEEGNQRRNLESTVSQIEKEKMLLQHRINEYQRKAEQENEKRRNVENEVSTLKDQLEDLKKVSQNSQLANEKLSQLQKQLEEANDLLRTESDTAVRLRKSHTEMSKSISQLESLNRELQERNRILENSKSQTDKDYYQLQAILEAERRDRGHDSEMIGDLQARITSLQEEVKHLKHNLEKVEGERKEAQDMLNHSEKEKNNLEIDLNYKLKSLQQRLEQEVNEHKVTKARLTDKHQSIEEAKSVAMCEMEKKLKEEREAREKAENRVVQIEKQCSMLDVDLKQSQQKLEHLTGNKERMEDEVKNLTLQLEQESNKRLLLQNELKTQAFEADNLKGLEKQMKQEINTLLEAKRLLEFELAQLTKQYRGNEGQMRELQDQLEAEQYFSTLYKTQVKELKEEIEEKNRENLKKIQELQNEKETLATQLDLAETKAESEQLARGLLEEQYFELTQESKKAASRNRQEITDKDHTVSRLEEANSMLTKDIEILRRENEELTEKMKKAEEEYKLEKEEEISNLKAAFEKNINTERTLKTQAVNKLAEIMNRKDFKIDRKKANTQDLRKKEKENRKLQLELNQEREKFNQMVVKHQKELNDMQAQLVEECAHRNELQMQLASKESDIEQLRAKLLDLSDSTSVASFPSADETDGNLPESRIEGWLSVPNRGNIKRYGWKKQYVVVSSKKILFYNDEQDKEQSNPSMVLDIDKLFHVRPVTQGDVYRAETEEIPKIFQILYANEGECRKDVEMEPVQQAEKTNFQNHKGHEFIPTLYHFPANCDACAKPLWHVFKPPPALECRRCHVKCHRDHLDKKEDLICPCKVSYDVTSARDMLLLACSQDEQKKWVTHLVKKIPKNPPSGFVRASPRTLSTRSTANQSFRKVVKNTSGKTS
Source text: as §1

Sequence of ROCK I (AA 6-553) (Q13464 6-553, species assumed): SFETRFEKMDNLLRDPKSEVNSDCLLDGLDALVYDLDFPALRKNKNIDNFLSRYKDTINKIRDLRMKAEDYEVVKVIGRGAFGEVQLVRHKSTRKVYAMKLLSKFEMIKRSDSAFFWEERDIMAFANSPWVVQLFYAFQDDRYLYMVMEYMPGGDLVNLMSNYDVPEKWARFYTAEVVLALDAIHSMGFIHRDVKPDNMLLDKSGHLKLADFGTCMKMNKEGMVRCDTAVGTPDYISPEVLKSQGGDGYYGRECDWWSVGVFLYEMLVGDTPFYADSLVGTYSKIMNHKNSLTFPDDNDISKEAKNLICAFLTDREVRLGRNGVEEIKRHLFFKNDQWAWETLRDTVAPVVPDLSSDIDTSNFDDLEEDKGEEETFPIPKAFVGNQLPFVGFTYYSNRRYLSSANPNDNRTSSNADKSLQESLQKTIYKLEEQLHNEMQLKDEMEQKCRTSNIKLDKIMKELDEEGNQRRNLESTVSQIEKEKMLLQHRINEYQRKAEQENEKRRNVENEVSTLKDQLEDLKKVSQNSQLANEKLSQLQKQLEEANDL

Row | Ki [1] [nM] | Ki [2] [nM] | Ki [3] [nM] | Compound
1 | < 500 | < 500 | < 500 | CN1CCN(S(=O)(=O)c2cccc(CC(=O)Nc3nc(-c4c[nH]c5ncccc45)cs3)c2)CC1 [II-51]
2 | < 500 | 500 to 5000 |  | O=C(NCc1cccc(S(=O)(=O)N2CCOCC2)c1)c1cc(-c2c[nH]c3ncccc23)cs1 [II-80]
3 | < 500 | 500 to 5000 |  | O=C(Nc1csc(-c2c[nH]c3ncccc23)n1)c1ccccc1 [II-81]
4 | < 500 | < 500 |  | CS(=O)(=O)Nc1ccc(F)c(CC(=O)Nc2nc(-c3c[nH]c4ncccc34)cs2)c1 [II-82]
5 | < 500 | 500 to 5000 |  | O=C(Cc1cccc(OCCCN2CCNCC2)c1)N(c1nc(-c2c[nH]c3ncccc23)cs1)C1CC1 [II-83]
6 | < 500 | 500 to 5000 |  | CN1CCN(CCCOc2cccc(CC(=O)N(c3nc(-c4c[nH]c5ncccc45)cs3)C3CC3)c2)CC1 [II-84]
7 | < 500 | < 500 |  | O=C(Cc1cccc(OCCN2CCNCC2)c1)N(c1nc(-c2c[nH]c3ncccc23)cs1)C1CC1 [II-85]
8 | < 500 | 500 to 5000 |  | CN1CCN(CCOc2cccc(CC(=O)N(c3nc(-c4c[nH]c5ncccc45)cs3)C3CC3)c2)CC1 [II-86]
9 | < 500 | < 500 |  | O=C(Cc1cccc(S(=O)(=O)N2CCOCC2)c1)N(c1nc(-c2c[nH]c3ncccc23)cs1)C1CC1 [II-87]
10 | < 500 | < 500 |  | O=C(Cc1cc2c(cc1Cl)OCO2)N(c1nc(-c2c[nH]c3ncccc23)cs1)C1CC1 [II-88]
11 | < 500 | 500 to 5000 |  | CC(C)N1CCN(S(=O)(=O)c2cccc(CC(=O)Nc3nc(-c4c[nH]c5ncccc45)cs3)c2)CC1 [II-89]
12 | < 500 | < 500 |  | CN(C)CCN(C)S(=O)(=O)c1cccc(CC(=O)Nc2nc(-c3c[nH]c4ncccc34)cs2)c1 [II-90]
13 | < 500 | < 500 |  | O=C(Cc1ccccc1)Nc1nc(-c2c[nH]c3nccc(Cl)c23)cs1 [II-91]
14 | < 500 | < 500 |  | COc1cccc(CC(=O)Nc2nc(-c3c[nH]c4nccc(Cl)c34)cs2)c1 [II-92]
15 | 500 to 5000 | 500 to 5000 |  | CCN(CC)S(=O)(=O)c1cccc(CC(=O)Nc2nc(-c3c[nH]c4nccc(Cl)c34)cs2)c1 [II-93]
16 | < 500 | < 500 |  | CS(=O)(=O)Nc1cccc(CC(=O)Nc2nc(-c3c[nH]c4nccc(Cl)c34)cs2)c1 [II-94]
17 | < 500 | < 500 |  | O=C(Cc1cccc(OCCCC2CCNCC2)c1)Nc1nc(-c2c[nH]c3nccc(Cl)c23)cs1 [II-95]
18 | < 500 | < 500 |  | COc1cccc(C2CCCN(c3nc(-c4c[nH]c5ncccc45)cs3)C2=O)c1 (stereo not drawn) [II-96]
19 | < 500 | < 500 |  | CN(C)CCNS(=O)(=O)c1cccc(CC(=O)Nc2nc(-c3c[nH]c4ncccc34)cs2)c1 [II-97]
20 | < 500 | 500 to 5000 |  | Cc1sc(NC(=O)Cc2ccccc2)nc1-c1c[nH]c2ncccc12 [II-98]
21 | < 500 | 500 to 5000 |  | COc1cccc(CC(=O)Nc2nc(-c3c[nH]c4ncccc34)c(C)s2)c1 [II-99]
22 | < 500 | 500 to 5000 |  | Cc1sc(NC(=O)Cc2cccc(NS(C)(=O)=O)c2)nc1-c1c[nH]c2ncccc12 [II-100]
23 | 500 to 5000 | 500 to 5000 |  | Cc1sc(NC(=O)Cc2cccc(S(=O)(=O)N3CCOCC3)c2)nc1-c1c[nH]c2ncccc12 [II-101]
24 | < 500 | < 500 |  | O=C(Cc1ccccc1)Nc1nc(-c2c[nH]c3ncc(Cl)cc23)cs1 [II-102]
25 | < 500 | < 500 |  | COc1cccc(CC(=O)Nc2nc(-c3c[nH]c4ncc(Cl)cc34)cs2)c1 [II-103]
26 | < 500 | 500 to 5000 |  | CS(=O)(=O)Nc1cccc(CC(=O)Nc2nc(-c3c[nH]c4ncc(Cl)cc34)cs2)c1 [II-104]

Row | Ki [1] [nM] | Ki [2] [nM] | Ki [3] [nM] | Compound
27 | < 500 | 500 to 5000 |  | O=C(Cc1cccc(S(=O)(=O)N2CCOCC2)c1)Nc1nc(-c2c[nH]c3ncc(Cl)cc23)cs1 [II-105]
28 | < 500 | < 500 |  | CS(=O)(=O)Nc1cccc(CNC(=O)c2cc(-c3c[nH]c4ncccc34)cs2)c1 [II-106]
29 | < 500 | 500 to 5000 |  | O=C(Cc1cccc(S(=O)(=O)N2CCOCC2)c1)Nc1nc(-c2c[nH]c3ncc(Br)cc23)cs1 [II-107]
30 | < 500 | 500 to 5000 | < 500 | O=C(Cc1ccc(OCCN2CCNCC2)cc1Cl)Nc1nc(-c2c[nH]c3ncccc23)cs1 [II-108]
31 | < 500 | 500 to 5000 | < 500 | CN1CCN(CCOc2ccc(CC(=O)Nc3nc(-c4c[nH]c5ncccc45)cs3)c(Cl)c2)CC1 [II-109]
32 | < 500 | 500 to 5000 | < 500 | O=C(Cc1ccc(OCCCN2CCNCC2)cc1Cl)Nc1nc(-c2c[nH]c3ncccc23)cs1 [II-110]
33 | < 500 | 500 to 5000 | < 500 | CN1CCN(CCCOc2ccc(CC(=O)Nc3nc(-c4c[nH]c5ncccc45)cs3)c(Cl)c2)CC1 [II-111]
34 | < 500 | 500 to 5000 |  | O=C(Cc1cccc(S(=O)(=O)N2CCCCC2)c1)Nc1nc(-c2c[nH]c3ncccc23)cs1 [II-112]
35 | < 500 | < 500 |  | CN(c1cccc(CC(=O)Nc2nc(-c3c[nH]c4ncccc34)cs2)c1)S(C)(=O)=O [II-113]
36 | < 500 | < 500 | < 500 | COc1cccc(CNC(=O)c2csc(-c3c[nH]c4ncccc34)c2)c1 [II-114]
37 | < 500 | < 500 | < 500 | CS(=O)(=O)Nc1cccc(CNC(=O)c2ccc(-c3c[nH]c4ncccc34)s2)c1 [II-115]
38 | < 500 | < 500 | < 500 | N#CCC(=O)Nc1nc(-c2c[nH]c3ncccc23)cs1 [II-116]
39 | < 500 | < 500 | < 500 | CS(=O)(=O)Nc1cccc(CNC(=O)c2csc(-c3c[nH]c4ncccc34)c2)c1 [II-117]
40 | < 500 | < 500 | < 500 | O=C(Cc1ccccc1)Nc1nc(-c2c[nH]c3ncc(F)cc23)cs1 [II-118]
41 | < 500 | < 500 | < 500 | COc1cccc(CC(=O)Nc2nc(-c3c[nH]c4ncc(F)cc34)cs2)c1 [II-119]
42 | < 500 | < 500 | < 500 | CS(=O)(=O)Nc1cccc(CC(=O)Nc2nc(-c3c[nH]c4ncc(F)cc34)cs2)c1 [II-120]
43 | < 500 | 500 to 5000 | < 500 | O=C(Cc1cccc(S(=O)(=O)N2CCOCC2)c1)Nc1nc(-c2c[nH]c3ncc(F)cc23)cs1 [II-121]
44 | < 500 | < 500 | < 500 | O=C(Cc1ccc(F)cc1F)Nc1nc(-c2c[nH]c3ncc(F)cc23)cs1 [II-122]
45 | < 500 | < 500 | < 500 | O=C(Cc1cccc(S(=O)(=O)NCCCN2CCNCC2)c1)Nc1nc(-c2c[nH]c3ncccc23)cs1 [II-123]
46 | < 500 | < 500 | < 500 | O=C(Cc1cccc(S(=O)(=O)N2CCC(O)C2)c1)Nc1nc(-c2c[nH]c3ncccc23)cs1 (stereo not drawn) [II-124]
47 | < 500 | < 500 | < 500 | CN1CCN(CCCNS(=O)(=O)c2cccc(CC(=O)Nc3nc(-c4c[nH]c5ncccc45)cs3)c2)CC1 [II-125]
48 | < 500 | < 500 | < 500 | O=C(Cc1cccc(S(=O)(=O)NCCCN2CCOCC2)c1)Nc1nc(-c2c[nH]c3ncccc23)cs1 [II-126]
49 | < 500 | < 500 | < 500 | COc1cccc(CC(=O)Nc2ccc(-c3c[nH]c4ncccc34)s2)c1 [II-127]
50 | < 500 | < 500 | < 500 | CS(=O)(=O)Nc1cccc(CC(=O)Nc2ccc(-c3c[nH]c4ncccc34)s2)c1 [II-128]
51 | < 500 | 500 to 5000 | < 500 | O=C(Cc1cccc(S(=O)(=O)N2CCOCC2)c1)Nc1ccc(-c2c[nH]c3ncccc23)s1 [II-129]

Reference: patent US7514448B2, “Azaindoles useful as inhibitors of rock and other protein kinases” (Vertex Pharmaceuticals Incorporated, priority 2004, dated 2009)
